Measurements from patent US10947196B2, “Beta adrenergic agonist and methods of using the same” (CURASEN THERAPEUTICS, INC., priority 2019, dated 2021).
Where two headings read alike, the source gives them in different places.

Columns and labels:
β2 adrenergic receptor = β2 adrenergic receptor (Homo sapiens (Human), UniProt P07550); assay: cAMP Gs dynamic HTRF assay, β2 expressing CHO cells; format: cell-based
How it was run: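 Intracellular cAMP quantified by Eu-donor/d2-acceptor HTRF after 30 min compound exposure at 37° C in stimulation buffer with IBMX. Concentrations ran 10 μM top, 5-fold steps, 10 points. Cell lines: 1321N1 astrocytoma and CHO expressing β1 or β2; EC50 via four-parameter fit, relative efficacy against isoproterenol.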

[1] = Mouse pharmacokinetic studies; format: in vivo, male C57BL/6J mice; set-up: AUClast/D: unit not given here; conditions: PO 5 mg/kg; for AUC(0-inf) / AUC(0-t) / Cmax / Tmax / half-life / MRT inf: male, C57BL/6J; for MRT inf: read-out: MRTInf—obs
Procedure: The rat pharmacokinetics studies of exemplary compounds 03-3, 03-5, and 03-115 were conducted with male SD rats. These rats were typically about 6-8 weeks old, weighing 200 g to 300 g. Animals were fasted overnight and free access to food 4 hours after dosing. A required volume of vehicle was added to reach the target concentration of the test article and vehicle component to prepare for the dosing. The dosing vehicle was PEG400 or 30% PEG400 in saline for IV, or 0.5% methylcellulose in water for PO. For IV dosing, the animals were administered intravenously via tail vein. For PO dosing, the animals were administered via oral gavage. After dosing, blood sample was collected (˜0.2 mL per time point) through jugular vein or heart puncture. Blood of each sample was transferred into plastic micro centrifuge tubes containing EDTA-K2. Collection tubes with blood samples and anticoagulant were inverted several times for proper mixing of the tube contents and then placed on wet ice. The blood samples were centrifuged at 2000 g for 5 minutes at 4° C. to obtain plasma which was stored in a freezer at −75±15° C. prior to analysis. Samples were analyzed using LC-MS/MS. WinNonlin were used for pharmacokinetic calculations.
Mouse pharmacokinetics studies of exemplar compounds 03-3 and 03-5 were conducted substantially similarly to the rat pharmacokinetic studies, instead using male C57BL/6J mice. These mice were typically about 6-8 weeks old, weighing 20 g to 30 g. Animals were free access to food before dosing. Sample amount was ˜0.03 mL per time point and sample site was dorsal metatarsal or heart puncture.

[2] = B2-AR, CHO-K cells, read-out: Average EC50 [Receptor subtype: B2-AR, Cell type: CHO-K]

β2 adrenergic receptor, sequence (P07550 whole entry, species assumed): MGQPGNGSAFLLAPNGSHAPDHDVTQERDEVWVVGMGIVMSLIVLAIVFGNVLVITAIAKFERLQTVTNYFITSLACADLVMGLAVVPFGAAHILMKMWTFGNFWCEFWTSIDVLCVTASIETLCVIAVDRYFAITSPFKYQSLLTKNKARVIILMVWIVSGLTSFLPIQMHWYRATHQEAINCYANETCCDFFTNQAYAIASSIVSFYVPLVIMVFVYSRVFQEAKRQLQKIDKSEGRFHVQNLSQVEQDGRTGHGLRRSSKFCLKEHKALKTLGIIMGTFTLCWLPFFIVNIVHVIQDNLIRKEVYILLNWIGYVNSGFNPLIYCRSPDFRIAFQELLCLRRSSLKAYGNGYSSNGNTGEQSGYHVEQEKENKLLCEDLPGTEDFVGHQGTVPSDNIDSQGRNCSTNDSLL

Row | Average pEC50 [Receptor subtype: B2-AR; Cell type: CHO-K1 (HitHunter)] (β2 adrenergic receptor; B2-AR, CHO-K1 (HitHunter)) | Compound | EC50 (β2 adrenergic receptor; cAMP HTRF, read-out: β2 EC50) | AUClast/D [1] | AUC—% Extrap—obs [1] | F [1] | AUC(0-inf) ([1]; plasma) | AUC(0-t) ([1]; plasma) | Cmax ([1]; plasma) | Tmax ([1]; plasma) | half-life ([1]; plasma) | MRT inf ([1]; plasma) | EC50 (β2 adrenergic receptor; [2]) | EC50 (β2 adrenergic receptor; B2-AR, CHO-K1 (HitHunter), read-out: Average pEC50 [Receptor subtype: B2-AR, Cell type: CHO-K1 (HitHunter)] (converted)) | AUC(0-inf) ([1]; in vivo) | Cmax ([1]; in vivo) | Tmax ([1]; in vivo) | MRT inf ([1]; in vivo)
1 |  | CC(C)(C)NC[C@H](O)c1cccc(C(F)(F)F)n1 [Compound 03-3] | < 10 nM | 774 | 0.958% | 85.1% | 3910 ng·h/mL | 3870 ng·h/mL | 1020 ng/mL | 0.25 h | 3.78 h | 4.08 h |  |  |  |  |  | 
2 | B-A | CC(C)(C)NC[C@H](O)c1cccc(C#N)n1 [Compound 03-5, (S)-6-(2-(tert-butylamino)-1-hydroxyethyl)picolinonitrile] |  | 1214 | 0.0845% | 163% | 6080 ng·h/mL | 6070 ng·h/mL | 1940 ng/mL | 0.917 h | 2.51 h | 2.43 h | < 10 nM |  |  |  |  | 
3 |  | Cc1ncccc1[C@@H](O)CNC(C)(C)C [Compound 03-115] |  |  |  | 112% |  |  |  |  |  |  | 10 to 100 nM | 10 to 100 nM | 3020 ng·h/mL | 1750 ng/mL | 0.5 h | 1.8 h
